Data from patent US20260262643A1, “HERBICIDAL BENZOXAZINES” (FMC CORPORATION, priority 2022, published 2026).

How the values were obtained:
barnyardgrass [1] = assay: Test C preemergence; type: in vivo, Echinochloa crusgalli; conditions: 0 to 100 scale (0 no effect, 100 complete control); for Plant response rating, Barnyardgrass: Preemergence, 500 g ai/ha, visual rating after 10 days; for Barnyardgrass plant response rating: Test C, preemergence, 125 g ai/ha
Summary of the method: (§1)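 Greenhouse herbicide screen, 10-day duration. Test chemicals in solvent/surfactant blend were sprayed onto soil at sowing (pre) or onto 2–10 cm seedlings at one to two leaves (post); injury scored visually against controls, 0 no effect to 100 complete control.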

blackgrass [2] = assay: Test C preemergence; type: in vivo, Alopecurus myosuroides; conditions: 0 to 100 scale (0 no effect, 100 complete control); for Plant response rating, Blackgrass: Preemergence, 500 g ai/ha, visual rating after 10 days; for Blackgrass plant response rating: Test C, preemergence, 125 g ai/ha
Summary of the method: as §1

corn [3] = assay: Test C preemergence; type: in vivo, Zea mays; conditions: 0 to 100 scale (0 no effect, 100 complete control); for Plant response rating, Corn: Preemergence, 500 g ai/ha, visual rating after 10 days; for Corn plant response rating: Test C, preemergence, 125 g ai/ha
Summary of the method: as §1

green foxtail [4] = assay: Test C preemergence; type: in vivo, Setaria viridis; conditions: 0 to 100 scale (0 no effect, 100 complete control); for Plant response rating, Foxtail, Green: Preemergence, 500 g ai/ha, visual rating after 10 days; for Foxtail, Green plant response rating: Test C, preemergence, 125 g ai/ha
Summary of the method: as §1

kochia [5] = assay: Test C preemergence; type: in vivo, Bassia scoparia; conditions: 0 to 100 scale (0 no effect, 100 complete control); for Plant response rating, Kochia: Preemergence, 500 g ai/ha, visual rating after 10 days; for Kochia plant response rating: Test C, preemergence, 125 g ai/ha
Summary of the method: as §1

oat, wild [6] = assay: Test C preemergence; type: in vivo, Avena fatua; conditions: 0 to 100 scale (0 no effect, 100 complete control); for Plant response rating, Oat, Wild: Preemergence, 500 g ai/ha, visual rating after 10 days; for Oat, Wild plant response rating: Test C, preemergence, 125 g ai/ha
Summary of the method: as §1

pigweed, palmer [7] = assay: Test C preemergence; type: in vivo, Amaranthus palmeri; conditions: 0 to 100 scale (0 no effect, 100 complete control); for Plant response rating, Pigweed, Palmer: Preemergence, 500 g ai/ha, visual rating after 10 days; for Pigweed, Palmer plant response rating: Test C, preemergence, 125 g ai/ha
Summary of the method: as §1

ragweed [8] = assay: Test C preemergence; type: in vivo, Ambrosia artemisiifolia; conditions: 0 to 100 scale (0 no effect, 100 complete control); for Plant response rating, Ragweed: Preemergence, 500 g ai/ha, visual rating after 10 days; for Ragweed plant response rating: Test C, preemergence, 125 g ai/ha
Summary of the method: as §1

ryegrass, Italian [9] = assay: Test C preemergence; type: in vivo, Lolium multiflorum; conditions: 0 to 100 scale (0 no effect, 100 complete control); for Plant response rating, Ryegrass, Italian: Preemergence, 500 g ai/ha, visual rating after 10 days; for Ryegrass, Italian plant response rating: Test C, preemergence, 125 g ai/ha
Summary of the method: as §1

soybean [10] = assay: Test C preemergence; type: in vivo, Glycine max; conditions: 0 to 100 scale (0 no effect, 100 complete control); for Plant response rating, Soybean: Preemergence, 500 g ai/ha, visual rating after 10 days; for Soybean plant response rating: Test C, preemergence, 125 g ai/ha
Summary of the method: as §1

wheat [11] = assay: Test C preemergence; type: in vivo, Triticum aestivum; conditions: 0 to 100 scale (0 no effect, 100 complete control); for Plant response rating, Wheat: Preemergence, 500 g ai/ha, visual rating after 10 days; for Wheat plant response rating: Test C, preemergence, 125 g ai/ha
Summary of the method: as §1

barnyardgrass [12] = assay: Test C postemergence; type: in vivo, Echinochloa crusgalli; conditions: 10 days
Summary of the method: as §1

blackgrass [13] = assay: Test C postemergence; type: in vivo, Alopecurus myosuroides; conditions: 10 days
Summary of the method: as §1

corn [14] = assay: Test C postemergence; type: in vivo, Zea mays; conditions: 10 days
Summary of the method: as §1

green foxtail [15] = assay: Test C postemergence; type: in vivo, Setaria viridis; conditions: 10 days
Summary of the method: as §1

kochia [16] = assay: Test C postemergence; type: in vivo, Bassia scoparia; conditions: 10 days
Summary of the method: as §1

oat, wild [17] = assay: Test C postemergence; type: in vivo, Avena fatua; conditions: 10 days
Summary of the method: as §1

pigweed, palmer [18] = assay: Test C postemergence; type: in vivo, Amaranthus palmeri; conditions: 10 days
Summary of the method: as §1

ragweed [19] = assay: Test C postemergence; type: in vivo, Ambrosia artemisiifolia; conditions: 10 days
Summary of the method: as §1

ryegrass, Italian [20] = assay: Test C postemergence; type: in vivo, Lolium multiflorum; conditions: 10 days
Summary of the method: as §1

soybean [21] = assay: Test C postemergence; type: in vivo, Glycine max; conditions: 10 days
Summary of the method: as §1

wheat [22] = assay: Test C postemergence; type: in vivo, Triticum aestivum; conditions: 10 days
Summary of the method: as §1

galium = assay: Test C postemergence; type: in vivo, Galium aparine; conditions: 10 days
Summary of the method: as §1

horseweed = assay: Test C postemergence; type: in vivo, Erigeron canadensis; conditions: 10 days
Summary of the method: as §1

barnyardgrass [23] = assay: Test D flooded paddy test; type: in vivo, Echinochloa crus-galli; conditions: 250 g ai/ha, applied to paddy water, visual rating after 13 to 14 days, scale 0 to 100 (0 no effect, 100 complete control)
Summary of the method: (§2)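 At the 2-leaf stage, floodwater 3 cm deep received the test compound; that depth persisted throughout. Plants scored visually 13 to 14 days on, 0 (no effect) to 100 (complete control), dash indicating no result.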

ducksalad = assay: Test D flooded paddy test; type: in vivo, Heteranthera limosa; conditions: 250 g ai/ha, applied to paddy water, visual rating after 13 to 14 days, scale 0 to 100 (0 no effect, 100 complete control)
Summary of the method: as §2

rice = assay: Test D flooded paddy test; type: in vivo, Oryza sativa; conditions: 250 g ai/ha, applied to paddy water, visual rating after 13 to 14 days, scale 0 to 100 (0 no effect, 100 complete control)
Summary of the method: as §2

sedge, umbrella = assay: Test D flooded paddy test; type: in vivo, Cyperus difformis; conditions: 250 g ai/ha, applied to paddy water, visual rating after 13 to 14 days, scale 0 to 100 (0 no effect, 100 complete control)
Summary of the method: as §2

[24] = 125 g ai/ha, postemergence, 0 to 100 scale, 0 no effect, 100 complete control
[25] = Postemergence, 500 g ai/ha, visual 0 to 100 scale (0 no effect, 100 complete control)

Cc1ccc(-n2cnc(C(C)C)n2)cc1C(=O)N1C[C@H](C)Oc2c1cccc2C(F)(F)F [Compound 170]
Plant response rating, Barnyardgrass (barnyardgrass [1]): 100 | Barnyardgrass plant response rating (barnyardgrass [1]): 90 | Plant response rating, Blackgrass (blackgrass [2]): 80 | Blackgrass plant response rating (blackgrass [2]): 50 | Plant response rating, Corn (corn [3]): 20 | Corn plant response rating (corn [3]): 20 | Plant response rating, Foxtail, Green (green foxtail [4]): 100 | Foxtail, Green plant response rating (green foxtail [4]): 100 | Plant response rating, Kochia (kochia [5]): 100 | Kochia plant response rating (kochia [5]): 90 | Plant response rating, Oat, Wild (oat, wild [6]): 80 | Oat, Wild plant response rating (oat, wild [6]): 60 | Plant response rating, Pigweed, Palmer (pigweed, palmer [7]): 100 | Pigweed, Palmer plant response rating (pigweed, palmer [7]): 100 | Plant response rating, Ragweed (ragweed [8]): 70 | Ragweed plant response rating (ragweed [8]): 20 | Plant response rating, Ryegrass, Italian (ryegrass, Italian [9]): 100 | Ryegrass, Italian plant response rating (ryegrass, Italian [9]): 80 | Plant response rating, Soybean (soybean [10]): 100 | Soybean plant response rating (soybean [10]): 70 | Plant response rating, Wheat (wheat [11]): 90 | Wheat plant response rating (wheat [11]): 50 | Plant response rating, Barnyardgrass (barnyardgrass [12]; [24]): 20 | Plant response rating, Barnyardgrass (barnyardgrass [12]; [25]): 50 | Plant response rating, Blackgrass (blackgrass [13]; [24]): 30 | Plant response rating, Blackgrass (blackgrass [13]; [25]): 80 | Plant response rating, Corn (corn [14]; [24]): 30 | Plant response rating, Corn (corn [14]; [25]): 50 | Plant response rating, Foxtail, Green (green foxtail [15]; [24]): 20 | Plant response rating, Foxtail, Green (green foxtail [15]; [25]): 90 | Plant response rating, Kochia (kochia [16]; [24]): 80 | Plant response rating, Kochia (kochia [16]; [25]): 100 | Plant response rating, Oat, Wild (oat, wild [17]; [24]): 20 | Plant response rating, Oat, Wild (oat, wild [17]; [25]): 60 | Plant response rating, Pigweed, Palmer (pigweed, palmer [18]; [24]): 100 | Plant response rating, Pigweed, Palmer (pigweed, palmer [18]; [25]): 100 | Plant response rating, Ragweed (ragweed [19]; [24]): 70 | Plant response rating, Ragweed (ragweed [19]; [25]): 90 | Plant response rating, Ryegrass, Italian (ryegrass, Italian [20]; [24]): 60 | Plant response rating, Ryegrass, Italian (ryegrass, Italian [20]; [25]): 90 | Plant response rating, Soybean (soybean [21]; [24]): 100 | Plant response rating, Soybean (soybean [21]; [25]): 100 | Plant response rating, Wheat (wheat [22]; [24]): 10 | Plant response rating, Wheat (wheat [22]; [25]): 50 | Plant response rating, Galium (galium; [24]): 100 | Plant response rating, Galium (galium; [25]): 100 | Plant response rating, Horseweed (horseweed; [24]): 80 | Plant response rating, Horseweed (horseweed; [25]): 90 | Plant response rating, Barnyardgrass (Flood) (barnyardgrass [23]): 0 | Plant response rating, Ducksalad (Flood) (ducksalad): 55 | Plant response rating, Rice (Flood) (rice): 15 | Plant response rating, Sedge, Umbrella (Flood) (sedge, umbrella): 95

CC(C)n1cnc(-c2cccc(C(=O)N3C[C@H](C)Oc4c(Cl)cccc43)c2)n1 [Compound 172]
Plant response rating, Barnyardgrass (barnyardgrass [1]): 0 | Barnyardgrass plant response rating (barnyardgrass [1]): 0 | Plant response rating, Blackgrass (blackgrass [2]): 0 | Blackgrass plant response rating (blackgrass [2]): 0 | Plant response rating, Corn (corn [3]): 0 | Corn plant response rating (corn [3]): 0 | Plant response rating, Foxtail, Green (green foxtail [4]): 0 | Foxtail, Green plant response rating (green foxtail [4]): 0 | Plant response rating, Kochia (kochia [5]): 0 | Kochia plant response rating (kochia [5]): 0 | Plant response rating, Oat, Wild (oat, wild [6]): 0 | Oat, Wild plant response rating (oat, wild [6]): 0 | Plant response rating, Pigweed, Palmer (pigweed, palmer [7]): 0 | Pigweed, Palmer plant response rating (pigweed, palmer [7]): 0 | Plant response rating, Ragweed (ragweed [8]): 0 | Ragweed plant response rating (ragweed [8]): 0 | Plant response rating, Ryegrass, Italian (ryegrass, Italian [9]): 20 | Ryegrass, Italian plant response rating (ryegrass, Italian [9]): 0 | Plant response rating, Soybean (soybean [10]): 0 | Soybean plant response rating (soybean [10]): 0 | Plant response rating, Wheat (wheat [11]): 0 | Wheat plant response rating (wheat [11]): 0 | Plant response rating, Barnyardgrass (barnyardgrass [12]; [24]): 0 | Plant response rating, Barnyardgrass (barnyardgrass [12]; [25]): 0 | Plant response rating, Blackgrass (blackgrass [13]; [24]): 0 | Plant response rating, Blackgrass (blackgrass [13]; [25]): 0 | Plant response rating, Corn (corn [14]; [24]): 0 | Plant response rating, Corn (corn [14]; [25]): 0 | Plant response rating, Foxtail, Green (green foxtail [15]; [24]): 0 | Plant response rating, Foxtail, Green (green foxtail [15]; [25]): 0 | Plant response rating, Kochia (kochia [16]; [24]): 0 | Plant response rating, Kochia (kochia [16]; [25]): 30 | Plant response rating, Oat, Wild (oat, wild [17]; [24]): 0 | Plant response rating, Oat, Wild (oat, wild [17]; [25]): 0 | Plant response rating, Pigweed, Palmer (pigweed, palmer [18]; [24]): 0 | Plant response rating, Pigweed, Palmer (pigweed, palmer [18]; [25]): 0 | Plant response rating, Ragweed (ragweed [19]; [24]): 0 | Plant response rating, Ragweed (ragweed [19]; [25]): 0 | Plant response rating, Ryegrass, Italian (ryegrass, Italian [20]; [24]): 0 | Plant response rating, Ryegrass, Italian (ryegrass, Italian [20]; [25]): 0 | Plant response rating, Soybean (soybean [21]; [24]): 0 | Plant response rating, Soybean (soybean [21]; [25]): 0 | Plant response rating, Wheat (wheat [22]; [24]): 0 | Plant response rating, Wheat (wheat [22]; [25]): 0 | Plant response rating, Galium (galium; [24]): 0 | Plant response rating, Galium (galium; [25]): 0 | Plant response rating, Horseweed (horseweed; [24]): 0 | Plant response rating, Horseweed (horseweed; [25]): 0 | Plant response rating, Barnyardgrass (Flood) (barnyardgrass [23]): 0 | Plant response rating, Ducksalad (Flood) (ducksalad): 0 | Plant response rating, Rice (Flood) (rice): 0 | Plant response rating, Sedge, Umbrella (Flood) (sedge, umbrella): 0
